In patent publication US20090156609A1, “TREATMENT OF POST-TRAUMATIC STRESS DISORDER WITH TETRAHYDROINDOLONE ARYLPIPERZAINE COMPOUNDS” (priority 2007, published 2009):

Assays:
[1] = system: mice; experiment: Spontaneous Activity model (locomotor activity); assay type: in vivo
From the text: Ambulatory and non-ambulatory activity can be used to test spontaneous and drug-induced motor activity. The test can be used to profile the potential for a drug to induce hyperactivity or sedation.
In this model, Kinder Scientific photobeam activity monitors are used to record the ambulatory and non-ambulatory motor activity. The monitors track the photobeam breaks made by the animal that are used to calculate the number of ambulatory and fine (non-ambulatory) motor movements. A drug-induced increase in activity can indicate the potential for an adverse event such as hyperactivity. A drug-induced decrease in response can indicate the potential for an adverse event such as sedation. Doses at which no significant change in activity are recorded, and more preferably at which no change in activity are recorded, can be selected for further evaluation.
The present compounds were tested in the conditioned avoidance response (CAR) model and in the Spontaneous Activity model described above.

[2] = system: C57/BL6 male mice; experiment: Contextual fear conditioning in an open field model; assay type: in vivo; conditions: 3.0 mg/kg subcutaneously for 10 consecutive days, tested day 16 after 5 day wash out
Description: Response to the development of contextual fear conditioning in an open field model, a model for PTSD, was evaluated in C57/BL6 male mice using the Kinder Scientific MotorMonitor System (Version 3.11, Kinder Scientific, Poway, Calif.). On Day 1 (Trauma Induction Day), animals were pretreated with compound 30 minutes prior to trauma induction and placed in a cage with a shock-grid floor. Locomotor activity was evaluated by an automated open field system with infrared photo-beams. The mice were placed in the center of the cage and the following variables of motor activity were recorded: locomotor activity, fine movement, and rearing. Animals were placed in the chamber for a total of 300 seconds. After 230 seconds, a 10 second, 2.0 mA electric footshock was administered. Mice remained in the chamber for an additional minute. Mice were then injected subcutaneously for 10 consecutive days (starting 24 hours post trauma induction) with either Compound A (3.0 mg/kg) or vehicle. On day 16, following a 5 day wash out period, mice were exposed to the traumatic environment without shock for 5 minutes. Total ambulatory activity was compared between Day 1 and Day 16.

- effect in the Spontaneous Activity model compared to vehicle treated mice ([1]; subcutaneous, doses of up to 10 mg/kg): did not produce any effect
Structure (SMILES): O=C1CCCc2c1ccn2CCN1CCN(c2cccc(Cl)c2)CC1 [Compound A, 1-{2-[4-(3-Chlorophenyl)piperazin-1-yl]ethyl}-1,5,6,7-tetrahydroindol-4-one]
- minimum effective dose, Locomotor Activity ([1]; models unwanted side effects): >10 mg/kg
- suppressed basic movements compared to vehicle treated animals (FIG. 2) [2]: displayed a reduction in suppressed basic movements
